Test results reported in patent US9359422B2, “Single chain relaxin polypeptides” (The University of Queensland, priority 2010, dated 2016).
Entries after “also recorded” stand apart in the source; their conditions may differ. Where two headings read alike, the source gives them in different places. Where no end group is shown, it is not given here.

How the values were obtained:
[1] = molecular target: T1, human RXFP3 (Homo sapiens, UniProt Q9NSD7); test: RXFP3 competition binding assay with Eu-DTPA-R3/I5; settings: for binding affinity for RXFP3 (in words): RXFP3-expressing cells, Eu-labelled H3/INSL5 chimeric polypeptide
T1 construct: expressed in transfected cells
T1 sequence (Q9NSD7 1-469): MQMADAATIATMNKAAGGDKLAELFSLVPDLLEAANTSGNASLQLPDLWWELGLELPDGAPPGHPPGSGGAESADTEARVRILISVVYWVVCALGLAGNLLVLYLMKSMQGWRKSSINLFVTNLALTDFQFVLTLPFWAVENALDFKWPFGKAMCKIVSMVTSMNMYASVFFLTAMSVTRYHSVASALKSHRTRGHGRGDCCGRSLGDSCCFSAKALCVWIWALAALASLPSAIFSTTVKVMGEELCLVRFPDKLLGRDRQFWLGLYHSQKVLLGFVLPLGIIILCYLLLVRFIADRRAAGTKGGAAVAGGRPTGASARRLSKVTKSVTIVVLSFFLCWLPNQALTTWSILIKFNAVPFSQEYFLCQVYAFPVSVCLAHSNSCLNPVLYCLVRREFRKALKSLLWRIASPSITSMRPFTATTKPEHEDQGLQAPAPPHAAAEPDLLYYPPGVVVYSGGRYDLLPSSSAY

[2] = molecular target: T1, human RXFP3; test: cAMP activity assay (pCRE β-galactosidase reporter, forskolin-induced) in CHO cells transfected with RXFP3; type: cell-based; settings: for agonist activity at RXFP3 (inhibition of cAMP activity): RXFP3-expressing cells, 5 μM forskolin; for antagonist activity at RXFP3 (rescue of cAMP levels): in the presence of 10 nM H3 relaxin
Description: For activity determination, a cAMP activity assay was used. CHO cells were cultured in a 1:1 mixture of Dulbecco's modified Eagle's medium and HAMNS-F12 medium supplemented with 10% fetal bovine serum, 1% L-glutamine and 1% penicillin/strepicillin and cultivated in a humidified chamber with 5% CO2 at 37.8° C. 20 000 cells per well were seeded into a pre-coated poly-L lysine 96-wells plate. Cells were incubated over night before being transfected with the mammalian expression vector pcDNA3.1(+)zeo (UMR cDAN Resource Center) carrying human RXFP3 together with a pCRE β-galactosidase reporter plasmid using TransIT-CHO, OptiMEM and CHO-MOJO reagents. Cells were then incubated over night in a humidified chamber with 5% CO2 at 37.8° C. before cAMP assays were performed. […] In brief, the cells were incubated with the peptide for 6 h in a humidified chamber before the media was aspirated off and the cells were frozen at −80° C. To develop the results, the cells were lysed by addition of 25 μl buffer A (5 ml 10 mM sodium phosphate buffer, pH 8.0, 1 ml 0.2 mM MgSO4 and 50 μl 0.01 mM MnCl2 in 44 ml H2O) to each well and incubated on a shaker for 10 min at room temperature before addition of 100 μl Buffer B (5 ml 100 mM sodium phosphate buffer, pH 8.0, 1 ml 2 mM MgSO4, 50 μl 0.1 mM MnCl2, 2.5 ml 0.5% Triton X-100 and 0.16 ml 40 mM β-mercaptoethanol in 41.3 ml H2O) followed by a 10 min incubation. The substrate, chlorophenol red-β-D-galactopyranoside (CPRG), was then added to each well and the reaction was left at room temperature until a absorbance of <1 AU at 570 nm was reached.

[3] = molecular target: T2, RXFP4 (Homo sapiens, UniProt Q8TDU9); test: cAMP activity assay in RXFP4-expressing cells; type: cell-based
T2 construct: expressed in transfected cells; host or cells: RXFP4-expressing cells

[4] = molecular target: T3, human RXFP1 (Homo sapiens, UniProt Q9HBX9); test: RXFP1 competition binding assay with Eu-DTPA-H2 relaxin; settings: HEK-293T cells transfected with RXFP1, Eu-DTPA-H2 relaxin
T3 construct: expressed in transfected cells; host or cells: HEK-293T
T3 sequence (Q9HBX9 1-757): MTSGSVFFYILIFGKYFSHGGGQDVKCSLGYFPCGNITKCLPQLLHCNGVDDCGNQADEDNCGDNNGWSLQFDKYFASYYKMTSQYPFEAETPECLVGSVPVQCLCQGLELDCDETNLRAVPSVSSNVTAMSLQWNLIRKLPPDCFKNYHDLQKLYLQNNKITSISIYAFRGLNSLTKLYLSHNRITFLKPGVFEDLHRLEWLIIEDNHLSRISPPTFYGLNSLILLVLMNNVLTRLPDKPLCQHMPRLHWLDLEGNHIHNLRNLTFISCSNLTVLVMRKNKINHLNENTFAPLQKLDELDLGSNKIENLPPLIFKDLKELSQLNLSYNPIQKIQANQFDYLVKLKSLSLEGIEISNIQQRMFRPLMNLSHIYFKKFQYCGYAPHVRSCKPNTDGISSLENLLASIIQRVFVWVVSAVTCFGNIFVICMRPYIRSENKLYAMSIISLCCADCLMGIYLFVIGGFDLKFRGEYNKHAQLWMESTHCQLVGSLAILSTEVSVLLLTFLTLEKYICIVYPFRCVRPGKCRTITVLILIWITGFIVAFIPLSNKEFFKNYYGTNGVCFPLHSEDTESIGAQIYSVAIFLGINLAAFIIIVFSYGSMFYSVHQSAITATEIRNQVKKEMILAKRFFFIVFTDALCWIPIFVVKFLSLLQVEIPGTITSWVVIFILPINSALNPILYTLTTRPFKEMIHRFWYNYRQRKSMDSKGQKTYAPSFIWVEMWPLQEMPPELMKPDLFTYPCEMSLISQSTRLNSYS
Description: Binding assays were carried out as follows. HEK-293T cells stably transfected with human RXFP3 were plated out onto pre-coated poly-L-lysine 96-well viewplates with a density of 50 000 cells per well. Media was aspirated off and the cells were washed with PBS before different concentrations of peptide diluted in binding buffer (100 mM HEPES, pH 7.6, 5 mM KCl, 1.3 mM MgSO4, 1.5 mM NaOAc, 1 mM EDTA and 10 mM glucose) and 300 μM of Eu-DTPA-R3/15 was added to each well. The cells were incubated at room temperature for 60 min before the peptide solution was aspirated off and the cells washed with PBS. DELFIA enhancement solution was then added and the cells incubated for a further 30-60 min at room temperature, after which the fluorescence was measured using a time resolved fluorometer with excitation at 340 nm an emission at 614 nm.
Similarly, the B1-22R single chain polypeptide was tested for its ability to activate RXFP1 or antagonise the action of H2 relaxin at this receptor. To do so, binding assays were carried out essentially as described above in Example 2 except using HEK-293T cells transfected with RXFP1 and 300 μM of Eu-DTPA-H2 relaxin.

[5] = tested on: alcohol-preferring (iP) rats; test: Operant alcohol self-administration in alcohol-preferring (iP) rats; type: in vivo, rat; settings: 10% ethanol, FR3, 3 μg, 10 μg or 30 μg via lateral cerebral ventricle cannula, vs normal and vehicle responding
Description: Rats were trained to stably administer 10% ethanol during daily operant session (n=18 rats) and then implanted with guide cannulae aimed at the lateral cerebral ventricle. Following a 7 day recovery period, the rats were re-stabilised on alcohol self-administration under fixed-ratio 3 (FR3) conditions and the effect of B1-22R was examined.
Rats were administered 3 μg, 10 μg or 30 μg of the B1-22R antagonist. […] The effect observed was dose-dependent.

[6] = tested on: rats; type: in vivo, rat; settings: 10 μg, 0 to 45 minutes post administration, vs vehicle
Description: The inventors also carried out experiments to determine if the effects may be due to disruption in locomotor skills.

[7] = HEK-293T cells stably transfected with human RXFP3, Eu-DTPA-R3/I5 tracer, n = 3, read-out: pIC50 (n = 3), binding affinities of single chain relaxin polypeptides for RXFP3 (converted)
[8] = HEK-293T cells stably transfected with human RXFP3, Eu-DTPA-R3/I5 tracer, n = 3

T2 sequence (Q8TDU9 whole entry, species assumed): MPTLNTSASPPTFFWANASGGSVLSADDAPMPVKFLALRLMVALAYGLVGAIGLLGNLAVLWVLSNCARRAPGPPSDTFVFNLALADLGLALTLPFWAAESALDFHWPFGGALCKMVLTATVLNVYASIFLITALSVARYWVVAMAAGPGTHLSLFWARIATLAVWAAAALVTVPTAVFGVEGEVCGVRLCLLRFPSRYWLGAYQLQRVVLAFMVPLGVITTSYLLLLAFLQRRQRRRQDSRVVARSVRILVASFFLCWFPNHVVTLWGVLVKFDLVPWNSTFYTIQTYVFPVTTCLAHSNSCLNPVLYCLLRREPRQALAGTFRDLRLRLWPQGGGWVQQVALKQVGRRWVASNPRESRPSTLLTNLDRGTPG

Row | Substance | IC50 [1, 7] | binding affinity for RXFP3 (in words) [1] | agonist activity at RXFP3 (inhibition of cAMP activity) [2] | further results
1 | H-APYGVRLSGREFIRAVIFTSR-NH2 [H3 B3-22R] | 195 nM | binding affinities for RXFP3 similar to that of B1-22R | failed to show any agonist activity | 
2 | H-AAPYGVRLSGREFIRAVIFTSR-NH2 [H3 B2-22R] | 87.1 nM | binding affinities for RXFP3 similar to that of B1-22R | failed to show any agonist activity | 
3 | H-YGVRLSGREFIRAVIFTSR-NH2 [H3 B5-22R] | 427 nM | binding affinities for RXFP3 similar to that of B1-22R | failed to show any agonist activity | 
4 | H-GVRLSGREFIRAVIFTSR-NH2 [H3 B6-22R] | 468 nM | binding affinities for RXFP3 similar to that of B1-22R | failed to show any agonist activity | 
5 | H-PYGVRLSGREFIRAVIFTSR-NH2 [H3 B4-22R] | 219 nM | binding affinities for RXFP3 similar to that of B1-22R | failed to show any agonist activity | 
6 | RAAPYGVRLSGREFIRAVIFTSGGSRW-OH [H3 B-chain C10/22S, reference compound] | 2510 nM |  |  | 
7 | RAAPYGVRLSGREFIRAVIFTS [H3 B1-22] |  | significantly less efficient in binding this receptor |  | pIC50 (n = 3), binding affinities of single chain relaxin polypeptides for RXFP3 [1, 8]: No activity
8 | H-RAAPYGVRLSGREFIRAVIFTSGGSRW-OH [H3 B-chain C10/22S, reference compound] |  | significantly less efficient in binding this receptor |  | 
9 | VRLSGREFIRAVIFTSR [H3 B7-22R] |  | failed to bind RXFP3 at any detectable level | failed to show any agonist activity | pIC50 (n = 3), binding affinities of single chain relaxin polypeptides for RXFP3 [1, 8]: No activity
10 | H-RAAPYGVRLSGREFIRAVIFTSR-OH [H3 B1-22R Acid] | 347 nM | binding affinities for RXFP3 similar to that of B1-22R | failed to show any agonist activity | 
11 | H-RAAPYGVRLAGREFIRAVIFTAR-NH2 [H3 B1-22R C10/22A] | 148 nM | binding affinities for RXFP3 similar to that of B1-22R | failed to show any agonist activity | antagonist activity at RXFP3 (rescue of cAMP levels) [2]: lowest antagonist activity
12 | H-RAAPYGVRLSGREFIRAVIFTSR-NH2 [H3 B1-22R] |  |  | no such inhibition | IC50 [1]: 17.8 nM; antagonist activity at RXFP3 (rescue of cAMP levels) [2]: rescued cAMP levels towards 100%; antagonist activity at RXFP3 (rescue of cAMP levels) ([2]; listed as H1-B22R): greatest antagonist activity; agonist activity at RXFP4 ([3]; RXFP4-expressing cells, cAMP): no agonist activity; antagonist activity at RXFP4 ([3]; block of INSL5 or H3 relaxin stimulated RXFP4 activation): fails to show any observable antagonist activity; affinity for the RXFP1 receptor [4]: very poor affinity; ethanol lever presses [5]: significant decrease in ethanol lever presses; also recorded: dose-dependent; locomotor skills (floor plane moves or floor plane distance) [6]: No significant difference
